Patent US20250228242A1 (priority 2021, published 2025)
Counter-ions that a name gives are not always drawn.

Tested on: P. infestans
Experiment: whole plant or invertebrate
Type: in vivo
Conditions: Phytophthora infestans, in Solanum tuberosum, read-out: P. infestans % inhibition

Compound | inhibition at 100 µM
Cc1cc(F)ccc1-c1cnc(-c2cccc(NC(=O)[C@@H](N)CCC(N)=O)c2)o1 [Compound 131, (2S)-2-Amino-N1-{3-[5-(4-fluoro-2-methylphenyl)-1,3-oxazol-2-yl]phenyl}pentanediamide hydrochloride] | 47%
CCc1ccc(-c2nc(-c3ccc(OC(F)(F)F)cc3)c[nH]2)cc1 [Compound 66, 2-(4-Ethylphenyl)-4-[4-(trifluoromethoxy)phenyl]-1H-imidazole] | 29%
CCOc1ccc(-c2coc(-c3cccc(C(C)C)c3)n2)cc1 [Compound 110, 4-(4-Ethoxyphenyl)-2-[3-(propan-2-yl)phenyl]-1,3-oxazole] | 18%
CCc1ccc(-c2c[nH]c(-c3ccc(NC(=O)[C@@H]4CCCN4)cc3)n2)cc1 [Compound 153, (2S)-N-{4-[4-(4-Ethylphenyl)-1H-imidazol-2-yl]phenyl}pyrrolidine-2-carboxamide dihydrochloride] | 95%
O=C(O)c1cccc(-c2noc(-c3ccccc3F)n2)c1 [Compound 62, 3-[5-(2-Fluorophenyl)-1,2,4-oxadiazol-3-yl]benzoic acid] | 64%
COc1ccc(-c2nc(-c3ccc(C(F)(F)F)cc3)no2)cc1 [Compound 64, 5-(4-Methoxyphenyl)-3-[4-(trifluoromethyl)phenyl]-1,2,4-oxadiazole] | 23%
COc1ccc(S(=O)(=O)Nc2ccc(-c3coc(-c4ccc(OC(C)C)cc4)n3)cc2)cc1 [Compound 124] | 4%
O=C(Nc1ccc(O)cc1)c1ccc(-c2nc(-c3ccc(N4CCCC4)cc3)c[nH]2)cc1 [Compound 55, N-(4-Hydroxyphenyl)-4-{4-[4-(pyrrolidin-1-yl)phenyl]-1H-imidazol-2-yl}benzamide] | 85%
CCc1ccc(-c2cc(-c3cccc(NC(=O)OCCOC)c3)[nH]n2)cc1 [Compound 126, 2-Methoxyethyl {3-[5-(4-ethylphenyl)-1H-pyrazol-3-yl]phenyl}carbamate] | 81%
Cc1cccc(-c2n[nH]c(-c3cccc(O)c3)n2)c1 [Compound 107, 5-(3-Hydroxyphenyl)-3-(3-methylphenyl)-1H-1,2,4-triazole] | 91%
O=C(Nc1ccc(-c2nc(-c3ccc(OC(F)(F)F)cc3)n[nH]2)cc1)C(F)(F)F [Compound 61, 2,2,2-Trifluoro-N-(4-{5-[4-(trifluoromethoxy)phenyl]-1H-1,2,4-triazol-3-yl}phenyl)acetamide] | 71%
COCCNC(=O)Nc1ccc(-c2n[nH]c(-c3ccc(C(F)(F)F)cc3)n2)cc1 [Compound 82, 1-(2-Methoxyethyl)-3-(4-{5-[4-(trifluoromethyl)phenyl]-1H-1,2,4-triazol-3-yl}phenyl)urea] | 18%
Cc1ccc(S(=O)(=O)Nc2ccc(-c3cc(-c4ccccc4F)no3)cc2)cc1 [Compound 47, N-{4-[3-(2-Fluorophenyl)-isoxazol-5-yl]phenyl}-4-methylbenzenesulfonamide] | 19%
CCc1ccc(-c2c[nH]c(-c3ccc(NC(=O)OCCOC)cc3)n2)cc1 [Compound 154, 2-Methoxyethyl {4-[4-(4-ethylphenyl)-1H-imidazol-2-yl]phenyl}carbamate] | 89%
CCSc1ccc(-c2cc(-c3ccccc3Cl)no2)cc1 [Compound 52, 3-(2-Chlorophenyl)-5-[4-(ethylsulfanyl)phenyl]-1,2-oxazole] | 9%
CCOC(=O)c1ccc(-c2noc(-c3ccc(SC)cc3)n2)cc1 [Compound 95, Ethyl 4-{5-[4-(methylsulfanyl)phenyl]-1,2,4-oxadiazol-3-yl}benzoate] | 9%
CCOC(=O)Nc1cccc(-c2c[nH]c(-c3ccc(F)cc3)n2)c1 [Compound 108, Ethyl {3-[2-(4-fluorophenyl)-1H-imidazol-5-yl]phenyl}carbamate] | 51%
Clc1ccc(-c2cc(-c3ccc4c(c3)OCCO4)n[nH]2)cc1 [Compound 111, 5-(4-Chlorophenyl)-3-(2,3-dihydro-1,4-benzodioxin-6-yl)-1H-pyrazole] | 24%
COc1ccc(-c2c[nH]c(-c3cccc(N4CCOCC4)c3)n2)cc1OC [Compound 144, 4-{3-[4-(3,4-Dimethoxyphenyl)-1H-imidazol-2-yl]phenyl}morpholine] | 81%
Nc1ccc(-c2nc(-c3cccc(C(F)(F)F)c3)no2)cc1 [Compound 74, 5-(4-Aminophenyl)-3-[3-(trifluoromethyl)phenyl]-1,2,4-oxadiazole] | 18%
CCNC(=O)Nc1ccc(C)c(-c2nc(-c3ccc(F)cc3)n[nH]2)c1 [Compound 101, 1-Ethyl-3-{3-[3-(4-fluorophenyl)-1H-1,2,4-triazol-5-yl]-4-methylphenyl}urea] | 69%
O=S(=O)(Nc1cccc(-c2nc(-c3ccc(OC(F)(F)F)cc3)c[nH]2)c1)c1ccc(Cl)cc1 [Compound 136, 4-Chloro-N-(3-{4-[4-(trifluoromethoxy)phenyl]-1H-imidazol-2-yl}phenyl)benzenesulfonamide] | 7%

Compound | inhibition at 100 µM
COCCNC(=O)Nc1cccc(-c2cc(-c3cccc(OC(F)(F)F)c3)[nH]n2)c1 [Compound 148, 1-{3-[5-(3-Trifluoromethoxyphenyl)-1H-pyrazol-3-yl]phenyl}-3-(2-methoxyethyl)urea] | 6%
Oc1ccc(-c2coc(-c3ccc4ncccc4c3)n2)cc1 [Compound 60, 6-[4-(4-Hydroxyphenyl)-1,3-oxazol-2-yl]quinoline] | 9%
N[C@@H](Cc1ccccc1)C(=O)Nc1cccc(-c2nc(-c3ccc(OC(F)(F)F)cc3)c[nH]2)c1 [Compound 141, (2S)-2-Amino-N-{3-[4-(4-trifluoromethoxyphenyl)-1H-imidazol-2-yl]phenyl}-3-phenylpropanamide hydrochloride] | 93%
COc1cc(-c2cc(-c3cccc(C(F)(F)F)c3)no2)ccc1Cl [Compound 48, 5-(4-Chloro-3-methoxyphenyl)-3-[3-(trifluoromethyl)phenyl]-isoxazole] | 21%
CN1CCN(c2cccc(-c3nc(-c4ccc5c(c4)OCCO5)co3)c2)CC1 [Compound 114, 1-Methyl-4-{3-[4-(2,3-dihydro-1,4-benzodioxin-6-yl)-1,3-oxazol-2-yl]phenyl}piperazine] | 93%
CCN(CC)C(=O)c1cccc(-c2ncc(-c3ccc(C(F)(F)F)cc3OC)o2)c1 [Compound 123, N,N-diethyl-3-{5-[2-methoxy-4-(trifluoromethyl)phenyl]-1,3-oxazol-2-yl}benzamide] | 33%
Clc1cccc(-c2cc(-c3ccc4c(c3)OCCO4)n[nH]2)c1 [Compound 80, 5-(3-Chlorophenyl)-3-(2,3-dihydro-1,4-benzodioxin-6-yl)-1H-pyrazole] | 77%
COC(=O)Nc1cccc(-c2ncc(-c3ccc(Cl)c(Cl)c3)o2)c1 [Compound 120, Methyl {3-[5-(3,4-dichlorophenyl)-1,3-oxazol-2-yl]phenyl}carbamate] | 12%
CCOc1cccc(-c2cc(-c3ccc(OC(F)(F)F)cc3)[nH]n2)c1 [Compound 165, 5-(3-Ethoxyphenyl)-3-[4-(trifluoromethoxy)phenyl]-1H-pyrazole] | 2%
FC(F)(F)c1cccc(-c2cc(-c3ccc4c(c3)OCCO4)n[nH]2)c1 [Compound 71, 3-(2,3-Dihydro-1,4-benzodioxin-6-yl)-5-[3-(trifluoromethyl)phenyl]-1H-pyrazole] | 36%
CCc1ccc(-c2c[nH]c(-c3cccc(C(=O)O)c3)n2)cc1 [Compound 125, 3-[4-(4-Ethylphenyl)-1H-imidazol-2-yl]benzoic acid] | 30%
CCOc1ccc(-c2cc(-c3ccc(C)c(C)c3)[nH]n2)cc1 [Compound 134, 3-(3,4-Dimethylphenyl)-5-(4-ethoxyphenyl)-1H-pyrazole] | 19%
COc1cccc(-c2cnc(-c3cccc(Br)c3)[nH]2)c1 [Compound 86, 2-(3-Bromophenyl)-5-(3-methoxyphenyl)-1H-imidazole] | 75%
CN1CCN(C(=O)c2cccc(-c3cc(-c4ccc(C(F)(F)F)cc4)[nH]n3)c2)CC1 [Compound 147, {3-[5-(4-Trifluoromethylphenyl)-1H-pyrazol-3-yl]phenyl}(4-methylpiperazin-1-yl)methanone] | 81%
N[C@@H](CC(=O)O)C(=O)Nc1ccc(-c2nc(-c3cccc(C(F)(F)F)c3)no2)cc1 [Compound 133, (3S)-3-Amino-4-oxo-4-[(4-{3-[3-(trifluoromethyl)phenyl]-1,2,4-oxadiazol-5-yl}phenyl)amino]butanoic acid hydrochloride] | 85%
CCOc1cccc(-c2nc(-c3cccc(C)c3)n[nH]2)c1 [Compound 106, 5-(3-Ethoxyphenyl)-3-(3-methylphenyl)-1H-1,2,4-triazole] | 44%
CN1CCN(c2ccc(-c3cc(-c4cc(F)cc(F)c4)[nH]n3)cc2)CC1 [Compound 146, 1-{4-[5-(3,5-Difluorophenyl)-1H-pyrazol-3-yl]phenyl}-4-methylpiperazine] | 95%
O=C(O)c1ccc(-c2cc(-c3cccc(C(F)(F)F)c3)no2)cc1 [Compound 83, 4-{3-[3-(Trifluoromethyl)phenyl]-1,2-oxazol-5-yl}benzoic acid] | 26%
Cc1ccc(-c2noc(-c3ccc(S(C)(=O)=O)cc3)n2)cc1 [Compound 89, 3-(4-Methylphenyl)-5-[4-(methylsulfonyl)phenyl]-1,2,4-oxadiazole] | 8%
COc1ccc(-c2nc(-c3cccc(Cl)c3)n[nH]2)cc1OC [Compound 158, 3-(3-Chlorophenyl)-5-(3,4-dimethoxyphenyl)-1H-1,2,4-triazole] | 59%
O=S(=O)(Nc1ccc(-c2n[nH]c(-c3ccc(C(F)(F)F)cc3)n2)cc1)c1ccc(Cl)cc1 [Compound 92, 4-Chloro-N-(4-{5-[4-(trifluoromethyl)phenyl]-1H-1,2,4-triazol-3-yl}phenyl)benzenesulfonamide] | 84%
Cc1cccc(-c2nc(-c3cccc(F)c3)c[nH]2)c1 [Compound 150, 4-(3-Fluorophenyl)-2-(3-methylphenyl)-1H-imidazole] | 91%
